Tests used:
FLT3 = molecular target: T1, FLT3 (Homo sapiens, UniProt P36888); assay: TR-FRET kinase activity assay, FLT3; type: biochemical; conditions: ATP at Km, 60 minutes
T1 sequence (P36888 27-993): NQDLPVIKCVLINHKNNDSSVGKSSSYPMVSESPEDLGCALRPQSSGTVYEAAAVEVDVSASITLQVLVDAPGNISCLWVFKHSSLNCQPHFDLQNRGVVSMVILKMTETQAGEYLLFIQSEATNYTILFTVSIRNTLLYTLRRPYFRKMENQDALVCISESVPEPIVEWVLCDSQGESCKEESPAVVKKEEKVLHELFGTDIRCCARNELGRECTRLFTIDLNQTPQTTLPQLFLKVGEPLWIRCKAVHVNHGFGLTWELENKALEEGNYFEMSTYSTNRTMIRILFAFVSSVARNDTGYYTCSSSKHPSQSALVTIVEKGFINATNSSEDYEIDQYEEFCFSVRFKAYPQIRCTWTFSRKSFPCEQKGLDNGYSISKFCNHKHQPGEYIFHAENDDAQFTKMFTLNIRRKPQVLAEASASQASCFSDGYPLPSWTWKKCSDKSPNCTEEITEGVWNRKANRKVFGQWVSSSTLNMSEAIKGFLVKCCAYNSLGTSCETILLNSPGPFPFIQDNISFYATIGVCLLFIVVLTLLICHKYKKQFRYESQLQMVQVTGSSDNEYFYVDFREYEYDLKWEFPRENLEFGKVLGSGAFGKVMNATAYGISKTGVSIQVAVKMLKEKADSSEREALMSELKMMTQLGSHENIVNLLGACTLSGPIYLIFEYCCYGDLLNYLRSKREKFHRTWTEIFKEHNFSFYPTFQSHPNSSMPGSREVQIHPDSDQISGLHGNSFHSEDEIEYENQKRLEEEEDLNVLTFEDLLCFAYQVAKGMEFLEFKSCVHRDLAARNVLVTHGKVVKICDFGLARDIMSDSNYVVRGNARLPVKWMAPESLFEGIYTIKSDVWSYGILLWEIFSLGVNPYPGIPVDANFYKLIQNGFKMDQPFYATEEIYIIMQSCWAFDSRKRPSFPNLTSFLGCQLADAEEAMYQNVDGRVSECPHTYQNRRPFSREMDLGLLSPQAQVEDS
Procedure, shortened: (§1)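 Steps: compound, enzyme and labeled peptide combined at RT (50 mM HEPES pH 7.5, 10 mM MgCl2, 1 mM DTT); ATP added at Km; 60 min reaction; EDTA quench; Eu-antibody development 30 min in darkness; TR-FRET measured and IC50 fitted.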

TYRO3 = molecular target: T2, TYRO3 (Homo sapiens, UniProt Q06418); assay: TR-FRET kinase activity assay, TYRO3; type: biochemical; conditions: ATP at Km, 60 minutes
T2 sequence (Q06418 41-890): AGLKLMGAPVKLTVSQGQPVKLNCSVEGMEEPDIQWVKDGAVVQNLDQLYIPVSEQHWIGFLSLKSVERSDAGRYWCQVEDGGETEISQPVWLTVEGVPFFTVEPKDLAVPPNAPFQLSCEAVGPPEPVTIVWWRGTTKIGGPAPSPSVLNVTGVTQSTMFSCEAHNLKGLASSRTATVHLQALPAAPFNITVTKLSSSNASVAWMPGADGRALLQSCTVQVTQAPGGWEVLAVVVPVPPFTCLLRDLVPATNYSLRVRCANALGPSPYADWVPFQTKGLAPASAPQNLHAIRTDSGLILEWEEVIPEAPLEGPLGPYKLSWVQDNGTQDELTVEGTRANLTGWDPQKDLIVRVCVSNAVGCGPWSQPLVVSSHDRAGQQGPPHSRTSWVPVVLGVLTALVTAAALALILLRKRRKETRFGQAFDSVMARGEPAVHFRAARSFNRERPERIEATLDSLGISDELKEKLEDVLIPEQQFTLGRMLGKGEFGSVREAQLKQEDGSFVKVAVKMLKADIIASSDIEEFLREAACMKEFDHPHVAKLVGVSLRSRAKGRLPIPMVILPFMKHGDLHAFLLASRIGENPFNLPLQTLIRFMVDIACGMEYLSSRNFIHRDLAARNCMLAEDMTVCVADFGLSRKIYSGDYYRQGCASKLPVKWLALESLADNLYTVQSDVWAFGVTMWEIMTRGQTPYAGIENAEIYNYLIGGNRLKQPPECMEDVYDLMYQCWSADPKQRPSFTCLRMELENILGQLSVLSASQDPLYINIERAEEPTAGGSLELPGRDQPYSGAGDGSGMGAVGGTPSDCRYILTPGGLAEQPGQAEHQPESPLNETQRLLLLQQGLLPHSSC
Procedure, shortened: as §1

| SMILES | IC50 (FLT3) | IC50 (TYRO3) |
| --- | --- | --- |
| COC[C@H](C)Nc1ncc2c(O[C@@H]3CCN(C)C(C)(C)C3)ncc([C@H]3CC[C@H](O)CC3)c2n1 [Compound 385] | 1000 to 10000 nM | ≤ 100 nM |
| Cc1ncc([C@H]2CC[C@H](O)CC2)c2nc(N[C@@H](C)CC(F)(F)F)ncc12 [Compound 356] | 1000 to 10000 nM | ≤ 100 nM |
| C[C@@H](CC(F)(F)F)Nc1ncc2c(O[C@@H]3C[C@H]4CC[C@@H](C3)N4[C@@H]3CCOC3)ncc([C@H]3CC[C@H](O)CC3)c2n1 [Compound 415] | 100 to 1000 nM | ≤ 100 nM |
| CCN1C(C)(C)CC(Oc2ncc([C@H]3CC[C@H](O)CC3)c3nc(N[C@@H](C)CC(F)(F)F)ncc23)CC1(C)C [Compound 391] | 100 to 1000 nM | ≤ 100 nM |
| CNC(=O)c1ccc(Nc2ncc3c(OC4CCOCC4)ncc([C@H]4CC[C@H](O)CC4)c3n2)cc1 [Compound 398] | 100 to 1000 nM | ≤ 100 nM |
| COCCN1C(C)(C)CC(Oc2ncc([C@H]3CC[C@H](O)CC3)c3nc(N[C@@H]4CCOC4)ncc23)CC1(C)C [Compound 390] | 1000 to 10000 nM | 100 to 1000 nM |
| CC[C@@H](C)Nc1ncc2c(OC3CC(C)(C)N(C)C(C)(C)C3)ncc([C@H]3CC[C@H](O)CC3)c2n1 [Compound 367] | 100 to 1000 nM | ≤ 100 nM |
| COC[C@H](C)Nc1ncc2c(Nc3ccncc3)ncc([C@H]3CC[C@H](O)CC3)c2n1 [Compound 362] | 1000 to 10000 nM | 100 to 1000 nM |
| O[C@H]1CC[C@H](c2cnc(OC3CCOCC3)c3cnc(Nc4ccc(-c5nn[nH]n5)cc4)nc32)CC1 [Compound 392] | 100 to 1000 nM | ≤ 100 nM |
| C[C@@H](CC(F)(F)F)Nc1ncc2c(O[C@@H]3C[C@H]4CC[C@@H](C3)N4C[C@@H]3CCOC3)ncc([C@H]3CC[C@H](O)CC3)c2n1 [Compound 416] | ≤ 100 nM | ≤ 100 nM |
| COC[C@H](C)Nc1ncc2c(OC3CC(C)(C)N(C(C)=O)C(C)(C)C3)ncc([C@H]3CC[C@H](O)CC3)c2n1 [Compound 361] | 1000 to 10000 nM | 100 to 1000 nM |
| C[C@@H](CC(F)(F)F)Nc1ncc2c(OC3CCN(S(C)(=O)=O)CC3)ncc([C@H]3CC[C@H](O)CC3)c2n1 [Compound 389] | 1000 to 10000 nM | 100 to 1000 nM |
| COCCN1C(C)(C)CC(Oc2ncc([C@H]3CC[C@H](O)CC3)c3nc(N[C@@H](C)CCO)ncc23)CC1(C)C [Compound 380] | 1000 to 10000 nM | ≤ 100 nM |
| COCCN1CCC(Oc2ncc([C@H]3CC[C@H](O)CC3)c3nc(N[C@@H](C)CC(F)(F)F)ncc23)CC1 [Compound 369] | 1000 to 10000 nM | ≤ 100 nM |
| CCCCNc1ncc2c(NC3CCOCC3)ncc([C@H]3CC[C@H](O)CC3)c2n1 [Compound 124] | ≤ 100 nM | ≤ 100 nM |
| O=C(O)[C@H]1CC[C@H](Nc2ncc3c(OC4CCOCC4)ncc([C@H]4CC[C@H](O)CC4)c3n2)CC1 [Compound 410] | 1000 to 10000 nM | 100 to 1000 nM |
| COCCN1C(C)(C)CC(Oc2ncc([C@H]3CC[C@H](O)CC3)c3nc(NC4(C)CC4)ncc23)CC1(C)C [Compound 379] | 100 to 1000 nM | ≤ 100 nM |
| COC[C@H](C)Nc1ncc2c(O[C@H]3CCN(C)C(C)(C)C3)ncc([C@H]3CC[C@H](O)CC3)c2n1 [Compound 384] | 1000 to 10000 nM | ≤ 100 nM |
| CCC[C@H](C)Nc1ncc2c(=O)n(C3CCNCC3)cc([C@H]3CC[C@H](O)CC3)c2n1 [Compound 126] | 1000 to 10000 nM | ≤ 100 nM |
| C[C@@H](CC(F)(F)F)Nc1ncc2c(O[C@H]3C[C@@H](O)C3)ncc(-c3ccc(C4(C#N)CC4)cc3)c2n1 [Compound 409] | 100 to 1000 nM | ≤ 100 nM |
| CC1(Nc2ncc3c(OC4CCOCC4)ncc(-c4cccc(NS(C)(=O)=O)c4)c3n2)CC1 [Compound 404] | 1000 to 10000 nM | 100 to 1000 nM |
| C[C@@H](CC(F)(F)F)Nc1ncc2c(OC3CC(C)(C)N(C)C(C)(C)C3)ncc([C@H]3CC[C@H](O)CC3)c2n1 [Compound 386] | 100 to 1000 nM | ≤ 100 nM |
| CCC(CC)Nc1ncc2c(=O)n(C3CCNCC3)cc([C@H]3CC[C@H](O)CC3)c2n1 [Compound 120] | 1000 to 10000 nM | ≤ 100 nM |
| C[C@@H](CC(F)(F)F)Nc1ncc2c(OC3CCN([C@@H]4CCOC4)CC3)ncc([C@H]3CC[C@H](O)CC3)c2n1 [Compound 378] | 1000 to 10000 nM | ≤ 100 nM |
| COCCN1C(C)(C)CC(Oc2ncc([C@H]3CC[C@H](O)CC3)c3nc(N[C@@H](C)CC#N)ncc23)CC1(C)C [Compound 376] | 1000 to 10000 nM | ≤ 100 nM |
| COC[C@H](C)Nc1ncc2c(OC3CCOCC3)ncc(-c3ccc(F)cc3)c2n1 [Compound 395] | 1000 to 10000 nM | 1000 to 10000 nM |

Now from value to molecule:

| IC50 (FLT3) | IC50 (TYRO3) | SMILES |
| --- | --- | --- |
| 100 to 1000 nM | ≤ 100 nM | C[C@@H](CC(F)(F)F)Nc1ncc2c(O[C@H]3C[C@@H](O)C3)ncc([C@H]3CC[C@H](O)CC3)c2n1 [Compound 360] |
| 1000 to 10000 nM | ≤ 100 nM | COC[C@H](C)Nc1ncc2c(OC3C[C@@H](C)N(C)[C@@H](C)C3)ncc([C@H]3CC[C@H](O)CC3)c2n1 (some centres unmarked) [Compound 371] |
| 1000 to 10000 nM | ≤ 100 nM | C[C@@H](CF)Nc1ncc2c(OC3CC(C)(C)N(C)C(C)(C)C3)ncc([C@H]3CC[C@H](O)CC3)c2n1 [Compound 382] |
| 1000 to 10000 nM | 100 to 1000 nM | COC[C@H](C)Nc1ncc2c(O[C@H]3CCOC3)ncc([C@H]3CC[C@H](O)CC3)c2n1 [Compound 357] |
| 100 to 1000 nM | ≤ 100 nM | C[C@@H](CC(F)(F)F)Nc1ncc2c(O[C@H]3C[C@H](O)C3)ncc([C@H]3CC[C@H](O)CC3)c2n1 [Compound 364] |
| 100 to 1000 nM | ≤ 100 nM | C[C@@H](CC(F)(F)F)Nc1ncc2c(O[C@H]3C[C@H](N4CCOCC4)C3)ncc([C@H]3CC[C@H](O)CC3)c2n1 [Compound 422] |
| 1000 to 10000 nM | ≤ 100 nM | C[C@H](Nc1ncc2c(O[C@H]3C[C@@H](O)C3)ncc([C@H]3CC[C@H](O)CC3)c2n1)C(F)F [Compound 411] |
| > 10000 nM | ≤ 100 nM | COC[C@H](C)Nc1ncc2c(O[C@H]3CCN(C)C3)ncc([C@H]3CC[C@H](O)CC3)c2n1 [Compound 368] |
| 1000 to 10000 nM | ≤ 100 nM | COC[C@H](C)Nc1ncc2c(OC3C[C@@H](C)N(C)[C@H](C)C3)ncc([C@H]3CC[C@H](O)CC3)c2n1 (some centres unmarked) [Compound 388] |
| 100 to 1000 nM | ≤ 100 nM | C[C@@H](CC(F)(F)F)Nc1ncc2c(O[C@H]3C[C@@H](CN4CCOCC4)C3)ncc([C@H]3CC[C@H](O)CC3)c2n1 [Compound 402] |
| 100 to 1000 nM | ≤ 100 nM | C[C@@H](CC(F)F)Nc1ncc2c(O[C@H]3C[C@@H](O)C3)ncc([C@H]3CC[C@H](O)CC3)c2n1 [Compound 428] |
| 1000 to 10000 nM | 100 to 1000 nM | C[C@H](CF)Nc1ncc2c(OC3CCOCC3)ncc([C@H]3CC[C@H](O)CC3)c2n1 [Compound 401] |
| 100 to 1000 nM | ≤ 100 nM | C[C@@H](CC(F)(F)F)Nc1ncc2c(O[C@H]3C[C@H](CN4CCOCC4)C3)ncc([C@H]3CC[C@H](O)CC3)c2n1 [Compound 420] |
| 100 to 1000 nM | ≤ 100 nM | C[C@@H](CC(F)(F)F)Nc1ncc2c(O[C@H]3C[C@@H](O)C3)ncc([C@H]3CC[C@@](C)(O)CC3)c2n1 [Compound 424] |
